Reference: patent US20170368082A1, “FORMULATIONS OF BRINCIDOFOVIR” (priority 2016, published 2017)
Read-outs that look alike come from different tables or passages of the source. Marks after values point to notes of the source that are not given here.

How the values were obtained:
[1] = cited from earlier work
[2] = 28-day intravenous infusion toxicity study with 14-day recovery; assay type: in vivo, Sprague-Dawley CD rats; details: for Testicular germ cell depletion, severity: terminal sacrifice
Procedure: Sprague-Dawley CD® rats (15/sex/group) were administered 0 (2× Sodium Phosphate Buffer Solution), 1, 4 or 15 mg/kg/dose brincidofovir twice per week via 2-hour intravenous infusion on a total of 9 occasions over 29 days. The dose rate was 10 mL/kg/hr for all dose groups. At the end of the treatment phase, up to 10 animals/sex/group were euthanized and necropsied. The remaining animals (up to 5 animals/sex/group) were held for a 14-day recovery phase in order to determine progression or reversibility of any brincidofovir-related effects. Satellite animals (up to 3/sex/group) were similarly dosed and serial blood samples were collected from each animal on Days 1 and 29 for toxicokinetic analysis of brincidofovir and the brincidofovir metabolite (Cidofovir, CDV). Parameters evaluated during the study were: viability, clinical observations, ophthalmology, body weights, food consumption, clinical pathology (termination of dosing and end of recovery), organ weights, macroscopic observations and microscopic pathology.
The test/control item was administered via 2 hours intravenous infusion twice weekly for a total of 9 individual doses over 29 days. Test/control item administration continued through the day prior to terminal necropsy. Recovery animals were held for a 14 day observation period after the last dose.
Animals in extremely poor health or in a possible moribund condition were identified for further monitoring and possible euthanasia.
Observations were made immediately and 2 hours after the completion of dosing for any signs of poor health or toxic or pharmacologic effects (e.g., abnormalities in general condition, appearance, activity, behavior, respiration, etc.).
Blood obtained via the orbital sinus (retrobulbar venous plexus) under light isoflurane anesthesia was used to analyze hematology, coagulation and clinical chemistry parameters for up to 10 toxicity animals/sex/group at the termination of dosing and up to 5 recovery animals/sex/group at the end of recovery. Animals were fasted overnight prior to each blood collection interval.
Necropsy was performed on up to 10 toxicity study animals/sex/group after animals had been treated for 29 days and on up to 5 toxicity study animals/sex/group after a 14 day treatment-free recovery period. Animals were fasted overnight prior to necropsy. Necropsy schedules were established to ensure that examination of animals of both sexes from each group were performed at similar times of the day throughout the necropsy periods.
Complete macroscopic examinations were performed on all animals. The macroscopic examination included examination of the external surface and all orifices; the external surfaces of the brain and spinal cord; the organs and tissues of the cranial, thoracic, abdominal and pelvic cavities and neck; and the remainder of the carcass for the presence of macroscopic morphologic abnormalities.
The tissues listed below were obtained from all animals and preserved. In addition, slides of the indicated tissues were prepared and examined microscopically. Any abnormalities not noted during macroscopic examinations which were seen during histology processing were recorded.
After fixation, the tissues and organs from all animals were routinely processed, embedded in paraffin, cut at a microtome setting of 4-7 microns, mounted on glass slides, stained with hematoxylin and eosin and examined by light microscopy. The bones were decalcified in Decalcifier II™.

[3] = females (2F), 1 mg/kg/dose, 29 day period, 11 tissues examined
[4] = females (3F), 4 mg/kg/dose, 29 day period, 10 tissues examined
[5] = females (4F), 15 mg/kg/dose, 29 day period, 10 tissues examined
[6] = females (4F), 15 mg/kg/dose, following 14-day recovery period, 5 tissues examined
[7] = males (2M), 1 mg/kg/dose, 29 day period, 10 tissues examined
[8] = males (2M), 1 mg/kg/dose, following 14-day recovery period, 5 tissues examined
[9] = males (3M), 4 mg/kg/dose twice weekly, 29 day period, statistically significant
[10] = males (3M), 4 mg/kg/dose, 29 day period, 10 tissues examined
[11] = males (3M), 4 mg/kg/dose, following 14-day recovery period, 5 tissues examined
[12] = males (3M), 4 mg/kg/dose, following 14-day recovery period, statistically significant
[13] = males (4M), 15 mg/kg/dose twice weekly, 29 day period, statistically significant
[14] = males (4M), 15 mg/kg/dose, 29 day period, 10 tissues examined
[15] = males (4M), 15 mg/kg/dose, following 14-day recovery period, 5 tissues examined
[16] = males (4M), 15 mg/kg/dose, following 14-day recovery period, statistically significant

Question: What does the source list for CCCCCCCCCCCCCCCCOCCCOP(=O)(O)CO[C@H](CO)Cn1ccc(N)nc1=O [Brincidofovir]?
Answer: Instance of diarrhea ([1]; single oral dose 100 mg and 200 mg): about 5%; Instance of diarrhea ([1]; single oral dose 350 mg): about 20%; mortality ([2]; 1, 4 or 15 mg/kg/dose): no brincidofovir-related mortalities; Clinical observations, dosing phase ([2]; 4 and 15 mg/kg/dose, both sexes): intermittent clinical signs; No-observed-adverse-effect level (NOAEL) ([2]; females): 4 mg/kg/dose; Decrease in food consumption vs concurrent controls (to) ([2]; females 15 mg/kg/dose, Week 3): −9.8%; Intestinal tract findings: Total Animals Represented [2, 3]: 0; Skin findings: Total Animals Represented [2, 3]: 0; Bone marrow findings: Total Animals Represented ([2]; females (2F), 1 mg/kg/dose, following 14-day recovery period, 4 tissues examined): 0; Intestinal tract findings: Total Animals Represented [2, 4]: 9; Skin findings: Total Animals Represented [2, 4]: 0; Small intestine: Necrosis, Epithelium, Crypts, Minimal (incidence) [2, 4]: 9; Bone marrow findings: Total Animals Represented ([2]; females (3F), 4 mg/kg/dose, following 14-day recovery period, 5 tissues examined): 0; Intestinal tract findings: Total Animals Represented [2, 5]: 9; Large intestine: Necrosis, Epithelium, glands, Minimal (incidence) [2, 5]: 4; Skin findings: Total Animals Represented [2, 5]: 10; Skin: Atrophy, Sebaceous Glands, Marked (incidence) [2, 5]: 2; Skin: Atrophy, Sebaceous Glands, Moderate (incidence) [2, 5]: 3; Skin: Atrophy, Sebaceous Glands, Slight (incidence) [2, 5]: 5; Small intestine: Hyperplasia, Epithelium, Crypts, Minimal (incidence) [2, 5]: 5; Small intestine: Necrosis, Epithelium, Crypts, Minimal (incidence) [2, 5]: 3; Small intestine: Necrosis, Epithelium, Crypts, Moderate (incidence) [2, 5]: 1; Small intestine: Necrosis, Epithelium, Crypts, Slight (incidence) [2, 5]: 5; Bone marrow findings: Total Animals Represented [2, 6]: 2; Bone marrow: Cellularity, Decreased, Minimal (incidence) [2, 6]: 2; Incidence of bone marrow decreased cellularity after recovery ([2]; females, 15 mg/kg/dose): 2/5; Intestinal tract findings: Total Animals Represented [2, 7]: 0; Male reproductive tract findings: Total Animals Represented [2, 7]: 0; Skin findings: Total Animals Represented [2, 7]: 0; Bone marrow findings: Total Animals Represented [2, 8]: 0; Male reproductive tract findings: Total Animals Represented [2, 8]: 0; Testes weight vs. body weight, % difference relative to controls ([2]; males (3M), 4 mg/kg/dose twice weekly, 29 day period): −3%; Testes absolute weight, % difference relative to controls [2, 9]: −9^a %; Testes weight vs. brain weight, % difference relative to controls [2, 9]: −9^a %; Intestinal tract findings: Total Animals Represented [2, 10]: 9; Male reproductive tract findings: Total Animals Represented [2, 10]: 10; Seminal Vesicles: Apoptosis, Epithelial, Minimal (incidence) [2, 10]: 4; Skin findings: Total Animals Represented [2, 10]: 0; Small intestine: Hyperplasia, Epithelium, Crypts, Minimal (incidence) [2, 10]: 5; Small intestine: Necrosis, Epithelium, Crypts, Minimal (incidence) [2, 10]: 8; Small intestine: Necrosis, Epithelium, Crypts, Slight (incidence) [2, 10]: 1; Testes: Depletion, Germ Cell, Minimal (incidence) [2, 10]: 6; Testes: Depletion, Germ Cell, Slight (incidence) [2, 10]: 3; Bone marrow findings: Total Animals Represented [2, 11]: 0; Male reproductive tract findings: Total Animals Represented [2, 11]: 5; Testes: Depletion, Germ Cell, Minimal (incidence) [2, 11]: 1; Testes: Depletion, Germ Cell, Slight (incidence) [2, 11]: 4; Testes absolute weight, % difference relative to controls [2, 12]: −21^a %; Testes weight vs. body weight, % difference relative to controls [2, 12]: −26^a %; Testes weight vs. brain weight, % difference relative to controls [2, 12]: −18^a %; Epididymides weight vs. body weight, % difference relative to controls ([2]; males (4M), 15 mg/kg/dose twice weekly, 29 day period): −6%; Epididymides absolute weight, % difference relative to controls [2, 13]: −14^a %; Epididymides weight vs. brain weight, % difference relative to controls [2, 13]: −13^a %; Testes absolute weight, % difference relative to controls [2, 13]: −24^a %; Testes weight vs. body weight, % difference relative to controls [2, 13]: −16^a %; Testes weight vs. brain weight, % difference relative to controls [2, 13]: −22^a %; Epididymides: Cell Debris, Luminal, Minimal (incidence) [2, 14]: 9; Intestinal tract findings: Total Animals Represented [2, 14]: 10; Large intestine: Necrosis, Epithelium, glands, Minimal (incidence) [2, 14]: 9; Male reproductive tract findings: Total Animals Represented [2, 14]: 10; Seminal Vesicles: Apoptosis, Epithelial, Minimal (incidence) [2, 14]: 8; Seminal Vesicles: Mitotic Figures, Epithelial, Minimal (incidence) [2, 14]: 4; Skin findings: Total Animals Represented [2, 14]: 10; Skin: Atrophy, Sebaceous Glands, Marked (incidence) [2, 14]: 4; Skin: Atrophy, Sebaceous Glands, Moderate (incidence) [2, 14]: 3; Skin: Atrophy, Sebaceous Glands, Slight (incidence) [2, 14]: 3; Small intestine: Hyperplasia, Epithelium, Crypts, Minimal (incidence) [2, 14]: 2; Small intestine: Necrosis, Epithelium, Crypts, Minimal (incidence) [2, 14]: 2; Small intestine: Necrosis, Epithelium, Crypts, Slight (incidence) [2, 14]: 8; Testes: Depletion, Germ Cell, Moderate (incidence) [2, 14]: 5; Testes: Depletion, Germ Cell, Slight (incidence) [2, 14]: 5; Bone marrow findings: Total Animals Represented [2, 15]: 3; Bone marrow: Cellularity, Decreased, Slight (incidence) [2, 15]: 3; Epididymides: Cell Debris, Luminal, Minimal (incidence) [2, 15]: 5; Epididymides: Sperm, Reduced, Luminal, Marked (incidence) [2, 15]: 4; Epididymides: Sperm, Reduced, Luminal, Severe (incidence) [2, 15]: 1; Male reproductive tract findings: Total Animals Represented [2, 15]: 5; Testes: Depletion, Germ Cell, Marked (incidence) [2, 15]: 4; Testes: Depletion, Germ Cell, Moderate (incidence) [2, 15]: 1; Testes absolute weight, % difference relative to controls [2, 16]: −42^a %; Testes weight vs. body weight, % difference relative to controls [2, 16]: −40^a %; Testes weight vs. brain weight, % difference relative to controls [2, 16]: −41^a %; Sebaceous gland atrophy, severity ([2]; males and females 15 mg/kg/dose): slight to marked; Single cell necrosis of crypt epithelium in small intestine, severity ([2]; males and females ≧4 mg/kg/dose): minimal to moderate; Decrease in food consumption vs concurrent controls (to) ([2]; males ≧1 mg/kg/dose, Week 4): −16%; Testicular germ cell depletion, severity ([2]; males, 4 mg/kg/dose): minimal to slight; Incidence of bone marrow decreased cellularity after recovery ([2]; males, 15 mg/kg/dose): 3/5; Testicular germ cell depletion, severity ([2]; males, 15 mg/kg/dose): slight to moderate; No-observed-adverse-effect level (NOAEL) ([2]; males, twice weekly 2-h IV infusion): 1 mg/kg/dose; Diarrhea ([2]; rat, in vivo): none of the animals in the present study experienced diarrhea; Effects on ophthalmology, body weights, hematology, coagulation, clinical chemistry, urinalysis ([2]; rat, in vivo): no brincidofovir-related effects; Transaminase elevations ([2]; rat, in vivo): No transaminase elevations were observed
